What was measured:
[1] = tested on: GAL4CfEcR-DEF; assay: Transactivation of pFRLuc in NIH3T3 cells, VP16 RXR/USP constructs in partnership with GAL4CfEcR-DEF (FIG. 6); type: cell-based, Choristoneura fumiferana; conditions: for sensitivity of the switch to steroid versus non-steroid ligand: CfEcR/chimeric RXR-based switch (switch 1.13)
Description: (§1) Transfections: DNAs corresponding to the various switch constructs outlined in Example 1, specifically switches 1.1 through 1.6 were transfected into mouse NIH3T3 cells (ATCC) and human A549 cells (ATCC) as follows. […] NIH3T3 cells were grown in Dulbecco's modified Eagle medium (DMEM; LifeTechnologies) and A549 cells were grown in F12K nutrient mixture (LifeTechnologies). […] The cells were harvested and reporter activity was assayed. […] Reporter Assays: Cells were harvested 48 hours after adding ligands. […] Twenty μl of lysate were assayed. […] Thus, Applicants have made the surprising discovery that a chimeric RXR ligand binding domain may be used in place of a vertebrate RXR or an invertebrate RXR in an EcR-based inducible gene expression modulation system.
(§2) This Example describes the construction of four EcR-DEF-based gene switches comprising the DEF domains from Choristoneura fumiferana (Lepidoptera), Drosophila melanogaster (Diptera), Tenebrio molitor (Coleoptera), and Amblyomma americanum (Ixodidae) fused to a GAL4 DNA binding domain. In addition, the EF domains of vertebrate RXRs, invertebrate RXRs, or invertebrate USPs from Choristoneura fumiferana USP, Drosophila melanogaster USP, Locusta migratoria USP (Orthoptera), Mus musculus RXRα (Vertebrata), a chimera between MmRXRα and LmUSP (Chimera; of switch 1.13), Amblyomma americanum RXR homolog 1 (Ixodidae), Amblyomma americanum RXR homolog 2 (Ixodidae) were fused to a VP16 activation domain. […] The cells were harvested, lysed and luciferase reporter activity was measured in the cell lysates. Total fly luciferase relative light units are presented. […] The analysis was performed in triplicate and mean luciferase counts [total relative light units (RLU)] were determined as described above.

[2] = tested on: GAL4CfEcR-DEF; assay: HsRXRβ/LmUSP chimeric RXR LBDs with GAL4CfEcR-DEF and pFRLuc in NIH3T3 cells (FIGS. 9 and 10); type: cell-based, Choristoneura fumiferana; conditions: CfEcR in combination with chimera 11, FIG. 10
Description: This Example describes Applicants' further analysis of gene expression cassettes encoding various chimeric RXR polypeptides comprising a mouse RXRα isoform polypeptide fragment or a human RXRβ isoform polypeptide fragment and an LmUSP polypeptide fragment in mouse NIH3T3 cells.
Three individual clones of each chimeric RXR LBD of Table 1 were transfected into mouse NIH3T3 cells along with either GAL4CfEcR-DEF (switches 1.25-1.29 of Example 1; FIGS. 9 and 10) or GAL4DmEcR-DEF (switches 1.30-1.34 of Example 1; FIG. 11) and the reporter plasmid pFRLuc as described above. The transfected cells were cultured in the presence of either a) 0, 0.2, 1, or 10 μM non-steroidal ligand (FIG. 9), or b) 0, 0.2, 1, or 10 μM steroid ligand PonA or 0, 0.4, 0.2, 1, or 10 μM non-steroid ligand (FIGS. 10 and 11) for 48 hours. The reporter gene activity was measured and total RLU are shown. The number on top of each bar is the maximum fold induction for that treatment and is the mean of three replicates.

[3] = tested on: AmaEcR/chimeric RXR-based switch (switch 1.22); assay: Transactivation of pFRLuc in NIH3T3 cells, AmaEcR with chimeric RXR-EF (FIG. 8); type: cell-based, Amblyomma americanum; conditions: switch 1.22, NIH3T3 cells
Description: as §1
(§3) This Example describes the construction of four EcR-DEF-based gene switches comprising the DEF domains from Choristoneura fumiferana (Lepidoptera), Drosophila melanogaster (Diptera), Tenebrio molitor (Coleoptera), and Amblyomma americanum (Ixodidae) fused to a GAL4 DNA binding domain. […] The cells were harvested, lysed and luciferase reporter activity was measured in the cell lysates. […] The analysis was performed in triplicate and mean luciferase counts [total relative light units (RLU)] were determined as described above.

[4] = target: T1, GAL4DmEcR-DEF (Drosophila melanogaster, UniProt P34021); type: cell-based; conditions: NIH3T3 cells; for sensitivity of the switch to steroid versus non-steroid ligand: DmEcR/chimeric RXR-based switch (switch 1.20)
T1 construct: The D, E, and F domains from fruit fly Drosophila melanogaster EcR; expressed in transfected cells; host or cells: mouse NIH3T3 cells
T1 sequence (P34021 330-878): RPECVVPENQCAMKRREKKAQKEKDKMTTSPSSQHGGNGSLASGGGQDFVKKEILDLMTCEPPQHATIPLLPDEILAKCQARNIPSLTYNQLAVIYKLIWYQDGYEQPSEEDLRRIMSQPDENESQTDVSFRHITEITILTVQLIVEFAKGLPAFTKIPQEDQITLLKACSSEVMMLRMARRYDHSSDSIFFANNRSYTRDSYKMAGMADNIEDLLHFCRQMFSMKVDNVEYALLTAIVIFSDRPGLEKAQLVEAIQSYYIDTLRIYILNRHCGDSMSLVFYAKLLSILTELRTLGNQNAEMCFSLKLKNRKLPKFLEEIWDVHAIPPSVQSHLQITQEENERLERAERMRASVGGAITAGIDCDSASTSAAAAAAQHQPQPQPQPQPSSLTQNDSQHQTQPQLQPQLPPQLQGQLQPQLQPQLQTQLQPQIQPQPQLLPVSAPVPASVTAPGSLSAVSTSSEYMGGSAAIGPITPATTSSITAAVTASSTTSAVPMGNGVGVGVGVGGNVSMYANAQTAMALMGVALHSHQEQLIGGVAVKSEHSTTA
Description: as §1, §2

[5] = tested on: TmEcR/chimeric RXR-based switch (switch 1.21); assay: Transactivation of pFRLuc in NIH3T3 cells, TmEcR with chimeric RXR-EF (FIG. 8); type: cell-based, Tenebrio molitor; conditions: switch 1.21, NIH3T3 cells
Description: as §1, §3

[6] = tested on: GAL4CfEcR-DEF/VP16HsRXRβ-(1-8)-LmUSP-(9-12)-EF (βchimera 9; switch 1.27) gene switch; assay: Effect of 9-cis-retinoic acid as second ligand on transactivation of switch 1.27 in NIH3T3 cells (FIG. 12); type: cell-based, Choristoneura fumiferana; conditions: 0.04 μM non-steroid ligand, absence of 9-cis-retinoic acid
Description: In particular, Applicants have determined the effect of 9-cis-retinoic acid on the transactivation potential of the GAL4CfEcR-DEF/VP16HsRXRβ-(1-8)-LmUSP-(9-12)-EF (βchimera 9; switch 1.27) gene switch along with pFRLuc in NIH 3T3 cells in the presence of non-steroid (GSE) for 48 hours.
Briefly, GAL4CfEcR-DEF, pFRLuc and VP16HsRXRβ-(1-8)-LmUSP-(9-12)-EF (chimera #9) were transfected into NIH3T3 cells and the transfected cells were treated with 0, 0.04, 0.2, 1, 5 and 25 μM non-steroidal ligand (GSE) and 0, 1, 5 and 25 μM 9-cis-retinoic acid (Sigma Chemical Company). The reporter activity was measured at 48 hours after adding ligands.

CC(C)CC[C@@H](O)[C@](C)(O)[C@H]1CC[C@@]2(O)C3=CC(=O)[C@@H]4C[C@@H](O)[C@@H](O)C[C@]4(C)[C@H]3CC[C@]12C [PonA, ponasterone A]
sensitivity of the switch to steroid versus non-steroid ligand [1]: more sensitive to non-steroid than PonA | response of EcR to ligand [2]: responded well to non-steroid but not to PonA | sensitivity of the switch to ligand [3]: more sensitive to PonA | sensitivity of the switch to steroid versus non-steroid ligand [4]: more sensitive to PonA than non-steroid | sensitivity of the switch to ligand [5]: more sensitive to PonA

CCc1c(OC)cccc1C(=O)NN(C(=O)c1cc(C)cc(C)c1)C(C)(C)C [non-steroid, N-(2-ethyl-3-methoxybenzoyl)-N′-(3,5-dimethylbenzoyl)-N′-tert-butylhydrazine]
induction [6]: very little induction | sensitivity of the switch to steroid versus non-steroid ligand [1]: more sensitive to non-steroid than PonA | response of EcR to ligand [2]: responded well to non-steroid but not to PonA | sensitivity of the switch to ligand [3]: less sensitive to non-steroid | sensitivity of the switch to steroid versus non-steroid ligand [4]: more sensitive to PonA than non-steroid | sensitivity of the switch to ligand [5]: less sensitive to non-steroid

B1: MmRXRα-LmUSP chimera: chimeric RXR LBD: helices 1-7 of MmRXRα-EF and helices 8-12 of LmUSP-EF (SEQ ID NO: 45), fused to VP16 (protein)
chain: MGPKKKRKVAPPTDVSLGDELHLDGEDVAMAHADALDDFDLDMLGDGDSPGPGFTPHDSAPYGALDMADFEFEQMFTDALGIDEYGGEFPANEDMPVEKILEAELAVEPKTETYVEANMGLNPSSPNDPVTNICQAADKQLFTLVEWAKRIPHFSELPLDDQVILLRAGWNELLIASFSHRSIAVKDGILLATGLHVHRNSAHSAGVGAIFDRVLTELVSKMRDMQMDKTELGCLRSVILFNPEVRGLKSAQEVELLREKVYAALEEYTRTTHPDEPGRFAKLLLRLPSLRSIGLKCLEHLFFFRLIGDVPIDTFLMEMLESPSDS
fold induction ([1]; partner for CfEcR, FIG. 6): 11,000 fold | fold induction ([4]; partner for DmEcR, FIG. 7): 1759 fold
